The target in experiment [1] is SIRT1 (Homo sapiens (Human), UniProt Q96EB6). Briefly: SIRT1 inhibition assay (Fluor de Lys fluorescence-based assay kit). The format is biochemical. Conditions: human recombinant enzyme; for inhibition at 60 µM: 60 μM compound, read-out: SirT1 (% inhib at 60 μM). The protocol: (§1) SIRT1 and SIRT2 Inhibition Assays
(§2) All compounds were tested for inhibition of SIRT1 and SIRT2 using human recombinant enzymes available in the Fluor de Lys fluorescence-based assay kit (BIOMOL, AK555, AK556). All other required reagents were provided in the kit which was stored at −78° C. Before use, small aliquots of each enzyme (2-3 μL) were prepared, snap frozen in liquid nitrogen and stored at −78° C. Fresh dilutions of compounds were prepared in DMSO and further diluted in assay buffer. NAD^+ (12.5 […] at 4 mM) and Fluor de Lys SIRT1 or SIRT2 (12.5 μL at 100 μM) in assay buffer were added to a white 96 well plate, followed by compound (10 μL) and lastly enzyme (15 μL, 0.07 U/μL or SIRT1 and 0.3 U/μL for SIRT2). After incubation for 1 h at 37° C. a developer solution (50 μL) was added to each reaction. The developer solution contained 38 μL buffer, 10 μL developer and 2 μL nicotinamide (50 mM) per reaction. The plate was then incubated for 45 min at rt and then read using a Spectra Max Gemini fluorimeter with an excitation wavelength of 355 nm and an emission wavelength of 460 nm. SigmaPlot software was used to generate fit curves for raw plots and the equation for each curve was used to calculate IC50 data.

Experiment [2] addresses SIRT2 (Homo sapiens (Human), UniProt Q8IXJ6). Description: SIRT2 inhibition assay (Fluor de Lys fluorescence-based assay kit). The format is biochemical. Particulars: human recombinant enzyme; for inhibition at 60 µM: 60 μM compound, read-out: SirT2 (% inhib at 60 μM). The protocol: as §1, §2
For experiment [3], the system named is 3T3L1 cells. Description: Adipocyte differentiation assay (ORO red lipid staining). The format is cell-based, mouse. Particulars: 10 μM compound, 3T3L1 cells in the 8 media, in duplicate, versus controls with and without DMSO. The protocol: Adipocyte Differentiation Assay
3T3L1 cells (i.e. mouse fibroblasts that differentiate into adipocytes in so-called differentiation medium) were treated in a low glucose differentiation medium (as described by F Wang and Q Tong (Molecular Biology of the Cell, 20, 2009, 801-808) with either (i) a normal growth medium (DMEM), (ii) a low glucose differentiation medium containing ciglitazone, d-biotin, dexamethasone, IBMX, insulin and L-thyroxine, or a (iii) a low glucose differentiation medium as per (ii) but lacking one of the components (i.e 6 different media each comprising five components selected from ciglitazone, d-biotin, dexamethasone, IBMX, insulin and L-thyroxine). Cells were stained with ORO red to detect lipid.
The same differentiation assays with each of the 8 differentiation media were then repeated but with addition of DMSO solvent and also 10 μM of compound D3 (5-dimethylamino-pentanoic acid {4-[3-(3,5-dichloro-4-methoxy-benzoyl)-thioureido]-phenyl}-amide hydrochloride) in duplicate.

Data on 13 compounds can be found in patent US9365508B2, “Aroyl thiourea derivatives” (University Court of the University of St Andrews, priority 2009, dated 2016).

Counter-ions that a name gives are not always drawn.

Chain of SIRT2 (Q8IXJ6 whole entry): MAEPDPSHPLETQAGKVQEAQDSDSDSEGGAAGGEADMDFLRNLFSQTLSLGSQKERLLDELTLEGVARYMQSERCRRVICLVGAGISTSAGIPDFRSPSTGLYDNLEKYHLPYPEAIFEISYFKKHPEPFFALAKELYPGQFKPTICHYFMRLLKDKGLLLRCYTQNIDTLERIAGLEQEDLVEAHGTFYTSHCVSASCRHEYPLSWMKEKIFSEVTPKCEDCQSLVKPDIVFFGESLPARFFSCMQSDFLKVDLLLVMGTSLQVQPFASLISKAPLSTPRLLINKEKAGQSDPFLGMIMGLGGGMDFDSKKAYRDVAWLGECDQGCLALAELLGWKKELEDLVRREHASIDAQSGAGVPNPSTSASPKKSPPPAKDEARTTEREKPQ
Chain of SIRT1 (Q96EB6 whole entry): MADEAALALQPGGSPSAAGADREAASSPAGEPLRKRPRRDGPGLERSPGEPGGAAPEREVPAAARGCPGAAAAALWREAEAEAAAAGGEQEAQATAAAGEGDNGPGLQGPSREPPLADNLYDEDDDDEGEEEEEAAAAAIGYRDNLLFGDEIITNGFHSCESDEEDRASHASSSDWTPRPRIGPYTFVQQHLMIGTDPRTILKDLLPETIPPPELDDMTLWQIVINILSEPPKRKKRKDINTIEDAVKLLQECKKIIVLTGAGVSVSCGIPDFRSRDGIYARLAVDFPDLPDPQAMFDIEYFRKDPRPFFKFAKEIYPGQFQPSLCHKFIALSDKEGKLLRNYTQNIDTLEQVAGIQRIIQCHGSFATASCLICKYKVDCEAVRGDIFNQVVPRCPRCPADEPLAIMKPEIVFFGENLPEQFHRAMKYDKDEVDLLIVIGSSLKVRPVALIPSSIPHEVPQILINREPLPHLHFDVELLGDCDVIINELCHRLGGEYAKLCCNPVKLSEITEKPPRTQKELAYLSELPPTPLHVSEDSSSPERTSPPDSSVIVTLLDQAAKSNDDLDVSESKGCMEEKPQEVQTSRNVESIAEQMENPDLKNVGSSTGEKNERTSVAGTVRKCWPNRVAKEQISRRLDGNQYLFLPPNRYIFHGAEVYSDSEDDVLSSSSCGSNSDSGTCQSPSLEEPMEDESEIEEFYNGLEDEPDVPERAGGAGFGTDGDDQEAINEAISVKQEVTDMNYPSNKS

As for `Cc1ccc(C(=O)NC(=S)Nc2ccc(NC(=O)CCCCN(C)C)cc2)cc1` [318a A2, 5-Dimethylamino-pentanoic acid {4-[3-(4-methyl-benzoyl)-thioureido]-phenyl}-amide hydrochloride], the inhibition at 60 µM in experiment [1] was found to be 47%; in experiment [2] it was 40%.

`COc1c(Cl)cc(C(=O)NC(=S)Nc2ccc(NC(=O)CCCCN(C)C)cc2)cc1Cl.Cl` [Compound D3, 5-Dimethylamino-pentanoic acid {4-[3-(3,5-dichloro-4-methoxy-benzoyl)-thioureido]-phenyl}-amide hydrochloride]: the results for the inhibition at 60 µM in experiment [1] and in experiment [2] were 35% and 80.3%, respectively. Further, the IC50 was determined as 62.5 ± 3.6 µM in experiment [1] and 10.7 ± 1.6 µM in experiment [2]. Besides, the “oro red staining (adipogenesis)” value in experiment [3] was “increases the oro red staining”.

For `CCCCOc1c(Cl)cc(C(=O)NC(=S)Nc2ccc(NC(=O)CCCCN(C)C)cc2)cc1Cl` [Compound 392a, 5-Dimethylamino-pentanoic acid {4-[3-(4-butoxy-3,5-dichloro-benzoyl)-thioureido]-phenyl}-amide hydrochloride], the inhibition at 60 µM turned out to be 90.4% in experiment [1] and 96.3% in experiment [2]. The results for the half-inhibitory concentration (IC50) in experiment [1] and in experiment [2] were 22.5 ± 1.3 µM and 0.4 ± 0.4 µM, respectively.

As to `CCOc1c(Cl)cc(C(=O)NC(=S)Nc2ccc(NC(=O)CCCCN(C)C)cc2)cc1Cl` [Compound 391a, 5-Dimethylamino-pentanoic acid {4-[3-(3,5-dichloro-4-ethoxy-benzoyl)-thioureido]-phenyl}-amide hydrochloride], the inhibition at 60 µM in experiment [1] turned out to be 81.5%; in experiment [2] it was 87.9%. In addition, the 50% inhibitory concentration (IC50) in experiment [1] was 29.3 ± 3.6 µM; in experiment [2] it was 3 ± 0.1 µM.

Regarding `Cc1cccc(C(=O)NC(=S)Nc2ccc(NC(=O)CCCCN(C)C)cc2)c1` [Compound B1, 5-Dimethylamino-pentanoic acid {4-[3-(3-methyl-benzoyl)-thioureido]-phenyl}-amide], the inhibition at 60 µM in experiment [1] stood at 5%; in experiment [2], 20.9%.

With `CN(C)CCCCC(=O)Nc1ccc(NC(=S)NC(=O)c2ccc(Cl)cc2)cc1` [318a A1, 5-Dimethylamino-pentanoic acid {4-[3-(4-chloro-benzoyl)-thioureido]-phenyl}-amide hydrochloride], the inhibition at 60 µM in experiment [1] was 53%; in experiment [2] it was 61%.

Consider `CN(C)CCCCC(=O)Nc1ccc(NC(=S)NC(=O)c2ccc(Br)cc2)cc1` [Compound B5, 5-Dimethylamino-pentanoic acid {4-[3-(4-bromo-benzoyl)-thioureido]-phenyl}-amide hydrochloride], for which the inhibition at 60 µM in experiment [1] amounted to 13.5%; in experiment [2], 47.7%. Besides, the IC50 came out at 62.1 ± 2.3 µM in experiment [1] and 39.5 ± 9.7 µM in experiment [2].

Take `CCc1ccc(C(=O)NC(=S)Nc2ccc(NC(=O)CCCCN(C)C)cc2)cc1` [Compound 345d, 5-Dimethylamino-pentanoic acid {4-[3-(4-ethyl-benzoyl)-thioureido]-phenyl}-amide hydrochloride]: the inhibition at 60 µM was 9.1% in experiment [1] and 57.1% in experiment [2].

`Cc1ccc(C(=O)NC(=S)Nc2ccc(NC(=O)CCCCN(C)C)cc2)cc1C` [Compound C4, 5-Dimethylamino-pentanoic acid {4-[3-(3,4-dimethyl-benzoyl)-thioureido]-phenyl}-amide hydrochloride]: the inhibition at 60 µM is 27.5% in experiment [1] and 65.1% in experiment [2].

Regarding `CN(C)CCCCC(=O)Nc1ccc(NC(=S)NC(=O)c2ccc(Cl)c(Cl)c2)cc1` [Compound 311d, 5-Dimethylamino-pentanoic acid {4-[3-(3,4-dichloro-benzoyl)-thioureido]-phenyl}-amide hydrochloride], in experiment [1], the inhibition at 60 µM is 8% and the 50% inhibitory concentration (IC50) worked out at 70.9 ± 4.2 µM. Further, in experiment [2], the inhibition at 60 µM is 68% and the half-maximal inhibitory concentration (IC50) was 31.9 ± 6.4 µM.

Turning to `CN(C)CCCCC(=O)Nc1ccc(NC(=S)NC(=O)c2cc(Cl)cc(Cl)c2)cc1` [Compound 360a, 5-Dimethylamino-pentanoic acid {4-[3-(3,5-dichloro-benzoyl)-thioureido]-phenyl}-amide hydrochloride], the inhibition at 60 µM stood at 23.3% in experiment [1] and 49.9% in experiment [2].

Turning to `CN(C)CCCCC(=O)Nc1ccc(NC(=S)NC(=O)c2ccccc2Cl)cc1` [Compound A2, 5-Dimethylamino-pentanoic acid {4-[3-(2-chloro-benzoyl)-thioureido]-phenyl}-amide hydrochloride], the inhibition at 60 µM is 29.3% in experiment [1] and 54.3% in experiment [2].

Take `CN(C)CCCCC(=O)Nc1ccc(NC(=S)NC(=O)c2ccccc2)cc1` [Compound B4, 5-Dimethylamino-pentanoic acid [4-(3-benzoyl-thioureido)-phenyl]-amide hydrochloride]: the inhibition at 60 µM in experiment [1] stood at 3.5%; in experiment [2] it was 43.7%.
